The values below come from patent publication US20240189408A1, “COMPOSITIONS AND METHODS FOR REDUCING METHANE EMISSIONS IN RUMINANT POPULATIONS” (Arkea Bio Corp., priority 2022, published 2024).

Data set [1] deals with Methanobrevibacter ruminantium. Nature of the data set: Methane production of methanogen monocultures treated with sera from vaccinated animals. Type of data set: cell-based. As to conditions: small molecule inhibitor at 3 different concentrations, FIG. 17B. As to the method: Briefly, BY medium is inoculated with a methanogen-of-interest and combined with serum. The culture tube is crimped closed and pressurized with 80% hydrogen, 20% carbon dioxide. The cultures are incubated and methane in measured intermittently using a GazoMat handheld methane monitoring device. Methane is plotted as a function of time for the various treatment groups and the control group.
200 uL of serum from vaccinated animals were added to sterile anaerobic culture tubes. Open plasma containing tubes were placed into an anaerobic chamber containing 95% nitrogen and 5% hydrogen and allowed to stand 1 hr at ambient temperature. A single seeded culture of methanogen (M. gottschalkii or M. ruminantium) was prepared in BY medium at a volume sufficient to distribute 2.5 mL to each plasma sample and control tube. 2.5 mL of methanogen culture was added to each tube containing the serum, a septa was inserted and crimped into place. Sealed tubes were removed from the anaerobic chamber and each was pressurized with 25 PSI 80% H2, 20% CO2 gas via a hypodermic needle through the septum. Tubes were placed into a 38° C. shaking incubator and periodically removed for methane measurements. Methane measurements in the tube headspace were made with a handheld remote methane detector using a jig to hold the instrument and tube during measurement.

The test system of data set [2] is Mbb. Ruminantium. As to conditions: pure cultures; cited from earlier work.
Data set [3] deals with Methanomicrobium mobile. Conditions: pure cultures; cited from earlier work.
In data set [4] the test system is Methanosarcina mazei. As to conditions: pure cultures; cited from earlier work.
Data set [5] relates to rumen methanogens. Conditions: cited from earlier work.
Data set [6] is described as follows: 3-NOP volatility, mass loss open to air. Type of data set: physicochemical. Conditions: 500 mg in 5 dram vial open to air, ~18-24C, 15-30% RH, 6 days. As to the method:
3-NOP Volatility:500 mg of 3-NOP in a 5 dram vial was left open to air at ˜18-24C at 15-30% RH over the course of 6 days. Average mass loss is ˜0.25% per day.

The nature of data set [7]: 3-NOP to adsorbent ratio study. Type of data set: physicochemical. As to conditions: 24 hr, HPLC. Here is the method: Optimal loading of 3-NOP onto adsorbents was determined by varying ratios of 3-NOP to adsorbent. 3-NOP and adsorbent were speed mixed at 2000 rpm for 1 min at the following ratios by weight: 1:1.5, 1:2, 1:2.5. The adsorbed 3-NOP powder mixture was then placed in distilled water at 1% 3-NOP loading. The solution was allowed to equilibrate for 24 hr and then an aliquot was taken for HPLC to determine the reduction in 3-NOP concentration.

Data set [8] in a line: 3-NOP pH and temperature stability by HPLC. It is filed as physicochemical. As to conditions: 1-month, 4-30C, pH 4-10. An excerpt: 3-NOP pH and Temperature Stability: Confirmed via HPLC over a 1-month time period at temperature between 4-30C and pH 4-10.
The subject of data set [9] is rumen methanogens. Conditions: cited from earlier work. This is another data set of the same source.
The subject of data set [10] is methane production in ruminants. As to conditions: cited from earlier work.
Data set [11] relates to rumen methanogens. As to conditions: sheep, cited from earlier work.
In data set [12] the test system is rumen Methanobrevibacter. Conditions: 5.6 μmol/L, in vitro; rumen bacteria not inhibited; cited from earlier work.
Data set [13] relates to rumen methanogens. Conditions: goats, 10 g/day/goat; cited from earlier work.

Each structure is given as a SMILES string. Like-named read-outs stand apart in the source and are kept apart here. Some results are limits rather than exact numbers.

Consider `CCCCCCCCCCCC(=O)O` [lauric acid], for which the methane production rate entry in [1] is “reduction is methane production rate”.

For `C#CC(=O)O` [propynoic acid], the results for the “sensitivity to the inhibitor, ranking of three species” value in data set [2], in data set [3] and in [4] were “most sensitive”, “intermediate” and “least sensitive”, respectively. In addition, the “lowering of CH4 production” value in [5] (6 mmol/L) was 67%; in [5] (12 mmol/L), 78%.

`O=[N+]([O-])OCCCO` [3-NOP, 3-nitrooxypropanol]: the Average mass loss in [6] is about 0.25 % per day. In addition, the “Average Integrated Area of 3-NOP in solution” value came out at 2566.4 in data set [7] (3-NOP:Adsorbent 1:1.5, distilled water at 1% 3-NOP loading); 2566.4 in data set [7] (3-NOP:Adsorbent 1:2, distilled water at 1% 3-NOP loading); 2566.4 in data set [7] (3-NOP:Adsorbent 1:2.5, distilled water at 1% 3-NOP loading). In data set [8], the “pH and Temperature Stability” value is “Confirmed”. Further, the “decrease of CH4 yield” value in [9] (beef cattle, 2.0 g/day/cow) is listed as 59%. Besides, the “persistence of the inhibition” value in data set [9] (beef cattle, 2.0 g/day/cow) is recorded as “up to 112 days”. Moreover, the “decrease of CH4 production” value in data set [9] (dairy cows, 40-80 mg/kg feed DM, persistently for up to 84 days) is given as “about 30%”; in [11] (0.5 g/day) it was 29%. In addition, in data set [9] (directly added to the rumen through rumen cannula, daily dose 0.50 or 2.5 g per cow), the “degree of CH4 suppression” value is recorded as 7-10%. Besides, the “Addition amount; maximum methane suppression amount” value in data set [10] (0.08 mg/g dry matter (Alvarez-Hess et al., 2019)) was 0.08 mg/g dry matter; 44%; in data set [10] (60 mg/kg of feed dry matter (Melgar et al., 2020)) it was 26%/day (Melgar et al., 2020); in data set [10] (1.6 g, concentrate pellet (Van Wesemael et al., 2019)), 23%; in data set [10] (1.6 g, roughage (Van Wesemael et al., 2019)), 28%.

Turning to `CC[C@H](C)C(=O)O[C@H]1CCC=C2C=C[C@H](C)[C@H](CC[C@@H]3C[C@@H](O)CC(=O)O3)[C@H]21` [mevastatin], the growth result in [12] is recorded as “inhibited the growth of all three strains”.

Take `O=C(O)/C=C/C(=O)O` [fumarate]: in data set [13], the “decrease of abundance of methanogens and CH4 production” value is recorded as 11.9%. In addition, the “decrease of CH4 production” value in data set [5] (3.5 g/L, continuous fermenters with forages as a substrate) is given as 38%.

`CC[N+](=O)[O-]` [nitroethane]: in data set [10] (10 mmol/L), the “Addition amount; maximum methane suppression amount” value is recorded as 10 mmol/L; 96.7% (NE),. The “decrease of CH4 production” value is “up to 45%” in data set [11] (orally 24 mg/kg body weight daily for 5 days) and at most 69% in data set [11] (orally 72 mg/kg body weight daily for 5 days).
